Here are results for 20 molecules from paper PMC6271099, “Synthesis and Biological Evaluation of Novel 2-Methoxypyridylamino-Substituted Riminophenazine Derivatives as Antituberculosis Agents” (Molecules, 2014).

For data set [1], the system named is M. tuberculosis H37Rv. The experiment in a line: Microplate Alamar Blue Assay (MABA), in vitro antituberculosis activity (MIC). Format: cell-based. As to conditions: Mycobacterium tuberculosis, 96-well plate.
Data set [2] is described as follows: Cytotoxicity using Vero cells. As to conditions: African green monkey, Vero cells.
Data set [3] deals with M. tuberculosis H37Rv. In words: In vivo acute M. tuberculosis H37Rv infection assay in mice. Details: species or system Mycobacterium tuberculosis. As to conditions: for logCFU/lung: BALB/c mice infected with M. tuberculosis H37Rv, 20 mg/kg, after 30 days of treatment, mean ± SD, n = 5.
A short description of data set [4]: Preliminary mouse pharmacokinetic study. As to conditions: plasma, po, 20 mg/kg.
The next data set has as its system Vero cells. In words: Cytotoxicity using Vero cells.
Data set [5] is described as follows: Preliminary multidose in vivo toxicity study in mice. As to conditions: oral 500 mg/kg once daily for 4 days; for Safety in mice (in words): 7-day observation; for Number of animals that survived/Total number of animals: followed by 7-day observation.
The conditions of data set [6]: as compared to CFZ.
[7] abbreviates: mouse model infected by M. tuberculosis H37Rv.

Each structure is given as a SMILES string. Values after ≈ are worked out from the molar mass of the structure shown.

`COc1ncccc1Nc1cc2nc3ccccc3n(-c3ccc(F)c(F)c3)c-2cc1=NC1CCCCC1` [Compound 18, 5-(3,4-Difluorophenyl)-3-cyclohexylimino-2-(2-methoxy-3-pyridyl)amino-3,5-dihydrophenazine]: the melting point was 218 to 219 °C. For the same molecule, the MIC in the data set with M. tuberculosis H37Rv [1] is 0.03 mg/L (≈ 0.0586 µM). The IC50 in data set [2] is above 64 mg/L.
The corresponding values for `COc1ncccc1Nc1cc2nc3ccccc3n(-c3ccc(F)c(F)c3)c-2cc1=NC1CCOCC1` [Compound 19, 5-(3,4-Difluorophenyl)-3-(4-tetrahydropyranyl)imino-2-(2-methoxy-3-pyridyl)amino-3,5-dihydro-phenazine] are 255 to 256 °C, 0.067 mg/L (≈ 0.13 µM) and above 64 mg/L.
Consider `CC(C)/N=c1\cc2n(-c3ccc(Cl)cc3)c3ccccc3nc-2cc1Nc1ccc(Cl)cc1` [CFZ, Clofazimine, reference compound], for which, in the data set on M. tuberculosis H37Rv [3], the logCFU/lung is reported as 4.29 ± 0.58. This molecule also yielded an MIC in the data set on M. tuberculosis H37Rv [1] of 0.12 mg/L (≈ 0.253 µM). In data set [4], the AUC(0-t) was found to be 8.22 µg·h/mL, the concentration peaked (Cmax) at 0.47 µg/mL, the Tmax was determined as 2 h and the half-life is 27.1 h. Further, the “SI (selectivity index IC50/MIC)” value in the data set with Vero cells amounted to 572. The same molecule yielded an IC50 in data set [2] of 68.6 mg/L (≈ 145 µM).
For `COc1ncccc1Nc1cc2nc3ccccc3n(-c3cccc(Cl)c3)c-2cc1=NC1CCOCC1` [Compound 14, 5-(3-Chlorophenyl)-3-(4-tetrahydropyranyl)imino-2-(2-methoxy-3-pyridyl)amino-3,5-dihydrophenazine], the melting point is 203 to 206 °C. The MIC against M. tuberculosis H37Rv [1] was determined as 0.025 mg/L (≈ 0.0488 µM). Further, in the data set on Vero cells, the “SI (selectivity index IC50/MIC)” value is listed as 936. Further, the IC50 in data set [2] amounted to 23.4 mg/L (≈ 45.7 µM).
For `COc1ncccc1Nc1cc2nc3ccccc3n(-c3ccc(Cl)c(Cl)c3)c-2cc1=NC(C)C` [Compound 21, 5-(3,4-Dichlorophenyl)-3-isopropylimino-2-(2-methoxy-3-pyridyl)amino-3,5-dihydrophenazine], the melting point fell in the range of 245 to 247 °C. This molecule had an MIC in the data set on M. tuberculosis H37Rv [1] of 0.099 mg/L (≈ 0.196 µM). The IC50 in data set [2] is above 64 mg/L.
Consider `COc1ncccc1Nc1cc2nc3ccccc3n(-c3ccc(F)cc3)c-2c/c1=N\C(C)C` [TBI-1004, reference compound], for which 0.038 mg/L (≈ 0.0838 µM) was the least that counted as inhibitory with M. tuberculosis H37Rv [1] (MIC). This molecule showed an IC50 in data set [2] above 64 mg/L.
`COc1ncccc1Nc1cc2nc3ccccc3n(-c3cccc(F)c3)c-2cc1=NC(C)C` [Compound 8, 5-(3-Fluorophenyl)-3-isopropylimino-2-(2-methoxy-3-pyridyl)amino-3,5-dihydrophenazine] showed a melting point of 198 to 199 °C. The molecule further showed an MIC against M. tuberculosis H37Rv [1] of 0.06 mg/L (≈ 0.132 µM). For the same molecule, the “SI (selectivity index IC50/MIC)” value in the data set on Vero cells is on record as 44. Besides, in data set [2], 2.65 mg/L (≈ 5.84 µM) corresponded to half-maximal inhibition (IC50).
In the case of `COc1ncccc1Nc1cc2nc3ccccc3n(-c3ccc(F)c(F)c3)c-2cc1=NC1CCC1` [Compound 17, 5-(3,4-Difluorophenyl)-3-cyclobutylimino-2-(2-methoxy-3-pyridyl)amino-3,5-dihydrophenazine], the melting point was 200 to 201 °C. The molecule further came in with an MIC in the data set on M. tuberculosis H37Rv [1] of 0.04 mg/L (≈ 0.0827 µM). Besides, the IC50 in data set [2] was above 64 mg/L.
The corresponding values for `COc1ncccc1Nc1cc2nc3ccccc3n(-c3ccc(F)c(F)c3)c-2cc1=NC1CCC(OC)CC1` (centres unmarked) [Compound 20, 5-(3,4-Difluorophenyl)-3-(4-methoxycyclohexyl)imino-2-(2-methoxy-3-pyridyl)amino-3,5-dihydro-phenazine] are 214 to 215 °C, 0.056 mg/L (≈ 0.103 µM) and above 64 mg/L.
On to `COc1ncccc1Nc1cc2nc3ccccc3n(-c3cccc(Cl)c3)c-2cc1=NC(C)C` [Compound 10, 5-(3-Chlorophenyl)-3-isopropylimino-2-(2-methoxy-3-pyridyl)amino-3,5-dihydrophenazine], for which the melting point lay in the range of 215 to 217 °C. In the data set with M. tuberculosis H37Rv [1], this molecule displayed an MIC of 0.25 mg/L (≈ 0.532 µM). Further, in the data set on Vero cells, the “SI (selectivity index IC50/MIC)” value was 20. Further, the IC50 in data set [2] was 5.1 mg/L (≈ 10.9 µM).
In turn, `COc1ncccc1Nc1cc2nc3ccccc3n(-c3ccc(Cl)c(Cl)c3)c-2cc1=NC1CC1` [Compound 22, 5-(3,4-Dichlorophenyl)-3-cyclopropylimino-2-(2-methoxy-3-pyridyl)amino-3,5-dihydrophenazine] gave a logCFU/lung in the data set on M. tuberculosis H37Rv [3] of 8.06 ± 0.13. Moreover, the “Efficacy in mouse model (in words)” value in the data set with M. tuberculosis H37Rv [3] (setting [7]) is “failed to display efficacy”. This molecule also came in with an MIC with M. tuberculosis H37Rv [1] of 0.025 mg/L (≈ 0.0498 µM). In addition, in data set [5], the “Safety in mice (in words)” value is “good safety” and the “Number of animals that survived/Total number of animals” value is listed as 6/6. The same molecule registered an IC50 in data set [2] above 64 mg/L.
`COc1ncccc1Nc1cc2nc3ccccc3n(-c3ccc(Cl)c(Cl)c3)c-2cc1=NC1CCC1` [Compound 23, 5-(3,4-Dichlorophenyl)-3-cyclobutylimino-2-(2-methoxy-3-pyridyl)amino-3,5-dihydrophenazine]: the melting point was 216 to 219 °C. Also, in the data set with M. tuberculosis H37Rv [1], the lowest concentration to inhibit growth (MIC) was 0.06 mg/L (≈ 0.116 µM). For the same molecule, the IC50 in data set [2] was above 64 mg/L.
The like results for `COc1ncccc1Nc1cc2nc3ccccc3n(-c3ccc(Cl)c(Cl)c3)c-2cc1=NC1CCC(OC)CC1` (centres unmarked) [Compound 25, 5-(3,4-Dichlorophenyl)-3-(4-methoxycyclohexyl)imino-2-(2-methoxy-3-pyridyl)amino-3,5-dihydro-phenazine] were, in that order, 215 to 217 °C, 0.059 mg/L (≈ 0.103 µM) and above 64 mg/L.
`COc1ncccc1Nc1cc2nc3ccccc3n(-c3cccc(Cl)c3)c-2cc1=NC1CCC1` [Compound 12, 5-(3-Chlorophenyl)-3-cyclobutylimino-2-(2-methoxy-3-pyridyl)amino-3,5-dihydrophenazine]: the melting point lay within 205 to 208 °C. Moreover, inhibition of growth in the data set on M. tuberculosis H37Rv [1] (MIC) required 0.06 mg/L (≈ 0.124 µM). The IC50 in data set [2] was above 64 mg/L.
Consider `COc1ncccc1Nc1cc2nc3ccccc3n(-c3cccc(Cl)c3)c-2cc1=NC1CC1` [Compound 11, 5-(3-Chlorophenyl)-3-cyclopropylimino-2-(2-methoxy-3-pyridyl)amino-3,5-dihydrophenazine], for which the melting point lay in the range of 211 to 214 °C. In the data set on M. tuberculosis H37Rv [1], it took 0.03 mg/L (≈ 0.0641 µM) to inhibit growth (MIC). Besides, the “SI (selectivity index IC50/MIC)” value in the data set on Vero cells was determined as 1696. Further, the IC50 in data set [2] was 50.9 mg/L (≈ 109 µM).
Take `COc1ncccc1Nc1cc2nc3ccccc3n(-c3cccc(F)c3)c-2cc1=NC1CCOCC1` [Compound 9, 5-(3-Fluorophenyl)-3-(4-tetrahydropyranyl)imino-2-(2-methoxy-3-pyridyl)amino-3,5-dihydro-phenazine]: the melting point fell in the range of 190 to 191 °C. Moreover, the MIC against M. tuberculosis H37Rv [1] was 0.061 mg/L (≈ 0.123 µM). Moreover, the “SI (selectivity index IC50/MIC)” value in the data set on Vero cells was 151. In addition, the IC50 in data set [2] came to 9.21 mg/L (≈ 18.6 µM).
As to `COc1ncccc1Nc1cc2nc3ccccc3n(-c3ccc(F)c(F)c3)c-2cc1=NC(C)C` [Compound 15, 5-(3,4-Difluorophenyl)-3-isopropylimino-2-(2-methoxy-3-pyridyl)amino-3,5-dihydrophenazine], the “Discoloration of the ears, internal organs and fat tissues of the mice” value in data set [6] was “less intense”. In the data set with M. tuberculosis H37Rv [3], this molecule registered a logCFU/lung of 4.56 ± 0.38. Further, in the data set on M. tuberculosis H37Rv [3] (setting [7]), the “Efficacy in mouse model (in words)” value is on record as “excellent efficacy”. Also, the “Reduction of bacterial burden in the lungs as compared to the untreated control group” value in the data set with M. tuberculosis H37Rv [3] (mouse model infected by M. tuberculosis H37Rv, lungs) is recorded as 3.8 logs colony forming units (CFU). The same molecule returned an MIC in the data set on M. tuberculosis H37Rv [1] of 0.066 mg/L (≈ 0.14 µM). Further, in data set [4], the AUC(0-t) is 21.2 µg·h/mL, the Cmax stood at 1.83 µg/mL, the Tmax stood at 2 h and the half-life was 13.8 h. In data set [5], the “Safety in mice (in words)” value was “good safety” and the “Number of animals that survived/Total number of animals” value is listed as 5/5. For the same molecule, the IC50 in data set [2] was above 64 mg/L.
`COc1ncccc1Nc1cc2nc3ccccc3n(-c3ccc(F)c(F)c3)c-2cc1=NC1CC1` [Compound 16, 5-(3,4-Difluorophenyl)-3-cyclopropylimino-2-(2-methoxy-3-pyridyl)amino-3,5-dihydrophenazine] registered a melting point of 213 to 214 °C. Further, the MIC in the data set with M. tuberculosis H37Rv [1] is 0.014 mg/L (≈ 0.0298 µM). In addition, in the data set on Vero cells, the “SI (selectivity index IC50/MIC)” value is 1822. Also, the midpoint of inhibition in data set [2], the IC50, lay at 25.5 mg/L (≈ 54.3 µM).
For the molecule `COc1ncccc1Nc1cc2nc3ccccc3n(-c3ccc(Cl)c(Cl)c3)c-2cc1=NC1CCOCC1` [Compound 24, 5-(3,4-Dichlorophenyl)-3-(4-tetrahydropyranyl)imino-2-(2-methoxy-3-pyridyl)amino-3,5-dihydro-phenazine], the melting point was in the range of 232 to 233 °C. The lowest concentration to inhibit growth with M. tuberculosis H37Rv [1] (MIC) was 0.08 mg/L (≈ 0.146 µM). In data set [2], this molecule returned an IC50 above 64 mg/L.
For the molecule `COc1ncccc1Nc1cc2nc3ccccc3n(-c3cccc(Cl)c3)c-2cc1=NC1CCCCC1` [Compound 13, 5-(3-Chlorophenyl)-3-cyclohexylimino-2-(2-methoxy-3-pyridyl)amino-3,5-dihydrophenazine], the melting point lay in the range of 197 to 201 °C. In addition, the MIC in the data set on M. tuberculosis H37Rv [1] worked out at 0.057 mg/L (≈ 0.112 µM). The “SI (selectivity index IC50/MIC)” value in the data set on Vero cells turned out to be 934. Further, the IC50 in data set [2] was 53.3 mg/L (≈ 104 µM).
